From ChEMBL document CHEMBL3272011, “Aminobenzoic acid diuretics. 9. 3,4-Disubstituted 5-acylaminobenzoic acids and related compounds” (1977)
Active and inactive are the calls of the source. The calls are words filed in the database; no cut-off is given here.

Legend:
Canis familiaris [1] = assay: Diuretic effect in mongrel dog assessed as urinary excretion of water at 1 mg/kg, iv after 3 hrs (reference value: 0.93 +/- 0.35 ml/kg); format: functional
Canis familiaris [2] = assay: Diuretic effect in mongrel dog assessed as urinary excretion of Na+ at 1 mg/kg, iv after 3 hrs (reference value: 0.10 +/- 0.02 mequiv/kg); format: functional
Canis familiaris [3] = assay: Diuretic effect in mongrel dog assessed as urinary excretion of K+ at 1 mg/kg, iv after 3 hrs (reference value: 0.16 +/- 0.01 mequiv/kg); format: functional
Canis familiaris [4] = assay: Diuretic effect in mongrel dog assessed as urinary excretion of Cl- at 1 mg/kg, iv after 3 hrs (reference value: 0.08 +/- 0.02 mequiv/kg); format: functional
Canis familiaris [5] = assay: Diuretic effect in mongrel dog assessed as urinary excretion of water at 0.1 mg/kg, iv after 3 hrs (reference value: 0.93 +/- 0.35 ml/kg); format: functional, Canis lupus familiaris, Urine
Canis familiaris [6] = assay: Diuretic effect in mongrel dog assessed as urinary excretion of Na+ at 0.1 mg/kg, iv after 3 hrs (reference value: 0.10 +/- 0.02 mequiv/kg); format: functional, Canis lupus familiaris, Urine
Canis familiaris [7] = assay: Diuretic effect in mongrel dog assessed as urinary excretion of water at 0.25 mg/kg, iv after 3 hrs (reference value: 0.93 +/- 0.35 ml/kg); format: functional, Canis lupus familiaris, Urine
Canis familiaris [8] = assay: Diuretic effect in mongrel dog assessed as urinary excretion of Na+ at 0.25 mg/kg, iv after 3 hrs (reference value: 0.10 +/- 0.02 mequiv/kg); format: functional, Canis lupus familiaris, Urine
Canis familiaris [9] = assay: Diuretic effect in mongrel dog assessed as urinary excretion of Na+ at 1 mg/kg, po after 3 hrs (reference value: 0.10 +/- 0.02 mequiv/kg); format: functional, Canis lupus familiaris, Urine
Canis familiaris [10] = assay: Diuretic effect in mongrel dog assessed as urinary excretion of K+ at 0.25 mg/kg, iv after 3 hrs (reference value: 0.16 +/- 0.01 mequiv/kg); format: functional, Canis lupus familiaris, Urine
Canis familiaris [11] = assay: Diuretic effect in mongrel dog assessed as urinary excretion of Cl- at 0.25 mg/kg, iv after 3 hrs (reference value: 0.08 +/- 0.02 mequiv/kg); format: functional, Canis lupus familiaris, Urine
Canis familiaris [12] = assay: Diuretic effect in mongrel dog assessed as urinary excretion of water at 1 mg/kg, po after 3 hrs (reference value: 0.93 +/- 0.35 ml/kg); format: functional, Canis lupus familiaris, Urine
Canis familiaris [13] = assay: Diuretic effect in mongrel dog assessed as urinary excretion of K+ at 1 mg/kg, po after 3 hrs (reference value: 0.16 +/- 0.01 mequiv/kg); format: functional, Canis lupus familiaris, Urine
Canis familiaris [14] = assay: Diuretic effect in mongrel dog assessed as urinary excretion of Cl- at 1 mg/kg, po after 3 hrs (reference value: 0.08 +/- 0.02 mequiv/kg); format: functional, Canis lupus familiaris, Urine
Canis familiaris [15] = assay: Diuretic effect in mongrel dog assessed as urinary excretion of water at 10 mg/kg, iv after 3 hrs (reference value: 0.93 +/- 0.35 ml/kg); format: functional, Canis lupus familiaris, Urine
Canis familiaris [16] = assay: Diuretic effect in mongrel dog assessed as urinary excretion of Na+ at 10 mg/kg, iv after 3 hrs (reference value: 0.10 +/- 0.02 mequiv/kg); format: functional, Canis lupus familiaris, Urine
Canis familiaris [17] = assay: Diuretic effect in mongrel dog assessed as urinary excretion of K+ at 10 mg/kg, iv after 3 hrs (reference value: 0.16 +/- 0.01 mequiv/kg); format: functional, Canis lupus familiaris, Urine
Canis familiaris [18] = assay: Diuretic effect in mongrel dog assessed as urinary excretion of Cl- at 10 mg/kg, iv after 3 hrs (reference value: 0.08 +/- 0.02 mequiv/kg); format: functional, Canis lupus familiaris, Urine
Canis familiaris [19] = assay: Diuretic effect in mongrel dog assessed as urinary excretion of water at 0.25 mg/kg, po after 3 hrs (reference value: 0.93 +/- 0.35 ml/kg); format: functional, Canis lupus familiaris, Urine
Canis familiaris [20] = assay: Diuretic effect in mongrel dog assessed as urinary excretion of Na+ at 0.25 mg/kg, po after 3 hrs (reference value: 0.10 +/- 0.02 mequiv/kg); format: functional, Canis lupus familiaris, Urine
Canis familiaris [21] = assay: Diuretic effect in mongrel dog assessed as urinary excretion of K+ at 0.25 mg/kg, po after 3 hrs (reference value: 0.16 +/- 0.01 mequiv/kg); format: functional, Canis lupus familiaris, Urine
Canis familiaris [22] = assay: Diuretic effect in mongrel dog assessed as urinary excretion of Cl- at 0.25 mg/kg, po after 3 hrs (reference value: 0.08 +/- 0.02 mequiv/kg); format: functional, Canis lupus familiaris, Urine
Canis familiaris [23] = assay: Diuretic effect in mongrel dog assessed as urinary excretion of Cl- at 1 mg/kg, po after 3 hrs (reference value: 0.08 +/- 0.02 mequiv/kg)
Canis familiaris [24] = assay: Diuretic effect in mongrel dog assessed as urinary excretion of K+ at 0.1 mg/kg, iv after 3 hrs (reference value: 0.16 +/- 0.01 mequiv/kg); format: functional, Canis lupus familiaris, Urine
Canis familiaris [25] = assay: Diuretic effect in mongrel dog assessed as urinary excretion of Cl- at 0.1 mg/kg, iv after 3 hrs (reference value: 0.08 +/- 0.02 mequiv/kg); format: functional, Canis lupus familiaris, Urine

| Compound | Activity (Canis familiaris [1]; Canis lupus familiaris, Urine) | Activity (Canis familiaris [1]) [mL/kg] | Activity (Canis familiaris [2]) [milliequivalent/kg] | Activity (Canis familiaris [3]) [milliequivalent/kg] | Activity (Canis familiaris [4]) [milliequivalent/kg] | further results |
| --- | --- | --- | --- | --- | --- | --- |
| O=CNc1cc(C(=O)O)cc(SCc2ccccc2)c1Oc1ccccc1 | inactive |  |  |  |  |  |
| CCN(C=O)c1cc(C(=O)O)cc(OCc2ccccc2)c1C(=O)c1ccccc1 | inactive |  |  |  |  | Activity (Canis familiaris [2]; Canis lupus familiaris, Urine): inactive; Activity (Canis familiaris [3]; Canis lupus familiaris, Urine): inactive; Activity (Canis familiaris [4]; Canis lupus familiaris, Urine): inactive |
| O=CNc1cc(C(=O)O)cc(OCc2ccccc2)c1-c1ccccc1 |  | 12 | 1.3 | 0.39 | 1.6 |  |
| CCCCOc1cc(C(=O)O)cc(NC=O)c1C(=O)c1ccccc1 |  | 17 | 2.1 |  |  | Activity (Canis familiaris [5]): 6 mL/kg; Activity (Canis familiaris [6]): 0.5 milliequivalent/kg |
| CCCOc1cc(C(=O)O)cc(NC=O)c1C(=O)c1ccccc1 |  | 10 | 2 | 0.52 | 1.2 |  |
| CNc1cc(C(=O)O)cc(OCc2ccccc2)c1C(=O)c1ccccc1 | inactive |  |  |  |  | Activity (Canis familiaris [2]; Canis lupus familiaris, Urine): inactive; Activity (Canis familiaris [3]; Canis lupus familiaris, Urine): inactive; Activity (Canis familiaris [4]; Canis lupus familiaris, Urine): inactive |
| O=CNc1cc(C(=O)O)cc(OCc2ccsc2)c1C(=O)c1ccccc1 |  |  |  |  |  | Activity (Canis familiaris [7]): 17 mL/kg; Activity (Canis familiaris [8]): 2.2 milliequivalent/kg; Activity (Canis familiaris [9]): 3.1 milliequivalent/kg; Activity (Canis familiaris [10]): 0.49 milliequivalent/kg; Activity (Canis familiaris [11]): 2.8 milliequivalent/kg; Activity (Canis familiaris [12]): 26 mL/kg; Activity (Canis familiaris [13]): 0.64 milliequivalent/kg; Activity (Canis familiaris [14]): 4.1 milliequivalent/kg |
| CC(=O)Nc1cc(C(=O)O)cc(OCc2ccccc2)c1-c1ccccc1 |  | 8 | 1 | 0.22 | 1.1 |  |
| C=CCSc1cc(C(=O)O)cc(NC=O)c1C(=O)c1ccccc1 | inactive |  |  |  |  |  |
| CN(C)CC(=O)Nc1cc(C(=O)O)cc(OCc2ccccc2)c1C(=O)c1ccccc1 |  |  |  |  |  | Activity (Canis familiaris [12]; Canis lupus familiaris, Urine): inactive |
| O=CNc1cc(C(=O)O)cc(NCc2ccccc2)c1Oc1ccccc1 |  | 8 | 1.3 | 0.26 | 1.3 | Activity (Canis familiaris [7]): 9 mL/kg; Activity (Canis familiaris [8]): 1.1 milliequivalent/kg; Activity (Canis familiaris [10]): 0.23 milliequivalent/kg; Activity (Canis familiaris [11]): 1.5 milliequivalent/kg |
| CCC(=O)Nc1cc(C(=O)O)cc(OCc2ccccc2)c1C(=O)c1ccccc1 |  | 7 | 0.6 | 0.2 | 0.9 |  |
| CC(C)CCSc1cc(C(=O)O)cc(NC=O)c1C(=O)c1ccccc1 |  |  |  |  |  | Activity (Canis familiaris [9]): 1.6 milliequivalent/kg; Activity (Canis familiaris [12]): 15 mL/kg; Activity (Canis familiaris [13]): 0.39 milliequivalent/kg; Activity (Canis familiaris [14]): 1.9 milliequivalent/kg |
| O=C(CCl)Nc1cc(C(=O)O)cc(OCc2ccccc2)c1C(=O)c1ccccc1 | inactive |  |  |  |  |  |
| O=CNc1cc(C(=O)O)cc(SCc2ccsc2)c1Oc1ccccc1 |  | 11 | 1.3 | 0.45 | 1.9 |  |
| CC(=O)Nc1cc(C(=O)O)cc(NCc2ccccc2)c1Oc1ccccc1 |  | 11 | 1.4 | 0.55 | 2.1 | Activity (Canis familiaris [15]): 27 mL/kg; Activity (Canis familiaris [16]): 2.8 milliequivalent/kg; Activity (Canis familiaris [17]): 0.8 milliequivalent/kg; Activity (Canis familiaris [18]): 3.8 milliequivalent/kg |

| Compound | Activity (Canis familiaris [1]; Canis lupus familiaris, Urine) | Activity (Canis familiaris [1]) [mL/kg] | Activity (Canis familiaris [2]) [milliequivalent/kg] | Activity (Canis familiaris [3]) [milliequivalent/kg] | Activity (Canis familiaris [4]) [milliequivalent/kg] | further results |
| --- | --- | --- | --- | --- | --- | --- |
| CNC(=O)Nc1cc(C(=O)O)cc(NCc2ccccc2)c1Oc1ccccc1 |  | 8 | 0.7 | 0.2 | 1.1 |  |
| O=C(O)c1cc(NC(=O)C(F)(F)F)c(C(=O)c2ccccc2)c(OCc2ccccc2)c1 |  |  |  |  |  | Activity (Canis familiaris [12]; Canis lupus familiaris, Urine): inactive |
| O=CNc1cc(C(=O)O)cc(NCc2ccccc2)c1-c1ccccc1 |  | 12 | 1.6 | 0.43 | 1.7 |  |
| CN(C=O)c1cc(C(=O)O)cc(OCc2ccccc2)c1C(=O)c1ccccc1 | Active |  |  |  |  | Activity (Canis familiaris [2]; Canis lupus familiaris, Urine): Active; Activity (Canis familiaris [3]; Canis lupus familiaris, Urine): Active; Activity (Canis familiaris [4]; Canis lupus familiaris, Urine): Active |
| CCCCSc1cc(C(=O)O)cc(NC=O)c1C(=O)c1ccccc1 |  | 21 | 2.3 | 0.65 |  | Activity (Canis familiaris [19]): 17 mL/kg; Activity (Canis familiaris [20]): 0.5 milliequivalent/kg; Activity (Canis familiaris [21]): 0.28 milliequivalent/kg; Activity (Canis familiaris [22]): 0.6 milliequivalent/kg; Activity (Canis familiaris [23]): 2.1 milliequivalent/kg |
| CC(=O)Nc1cc(C(=O)O)cc(NCc2ccccc2)c1C(=O)c1ccccc1 |  | 6 | 0.4 | 0.21 | 0.4 | Activity (Canis familiaris [15]): 22 mL/kg; Activity (Canis familiaris [16]): 1.7 milliequivalent/kg; Activity (Canis familiaris [17]): 0.58 milliequivalent/kg; Activity (Canis familiaris [18]): 2.2 milliequivalent/kg |
| O=C(O)c1cc(NC(=O)c2ccccc2)c(C(=O)c2ccccc2)c(OCc2ccccc2)c1 | inactive |  |  |  |  |  |
| NC(=O)Nc1cc(C(=O)O)cc(NCc2ccccc2)c1Oc1ccccc1 |  | 13 | 1.3 | 0.33 | 1.7 |  |
| CC(=O)Nc1cc(C(=O)O)cc(OCc2ccccc2)c1C(=O)c1ccccc1 |  | 14 | 1.3 | 0.45 | 3 |  |
| NS(=O)(=O)c1cc(C(=O)O)cc(OCc2ccccc2)c1C(=O)c1ccccc1 |  |  |  |  |  | Activity (Canis familiaris [5]): 12 mL/kg; Activity (Canis familiaris [6]): 1 milliequivalent/kg; Activity (Canis familiaris [24]): 0.42 milliequivalent/kg; Activity (Canis familiaris [25]): 2 milliequivalent/kg; Activity (Canis familiaris [19]): 33 mL/kg; Activity (Canis familiaris [20]): 3.6 milliequivalent/kg; Activity (Canis familiaris [21]): 0.89 milliequivalent/kg; Activity (Canis familiaris [22]): 4.4 milliequivalent/kg |
| O=CNc1cc(C(=O)O)cc(SCc2ccccc2)c1-c1ccccc1 | inactive |  |  |  |  |  |
| CCCNC(=O)Nc1cc(C(=O)O)cc(NCc2ccccc2)c1Oc1ccccc1 |  | 4 | 0.4 | 0.12 | 0.3 | Activity (Canis familiaris [15]): 11 mL/kg; Activity (Canis familiaris [16]): 1.1 milliequivalent/kg; Activity (Canis familiaris [17]): 0.4 milliequivalent/kg; Activity (Canis familiaris [18]): 1.9 milliequivalent/kg |
| CCCCOc1cc(C(=O)O)cc(NC(C)=O)c1C(=O)c1ccccc1 |  |  |  |  |  | Activity (Canis familiaris [9]): 2.1 milliequivalent/kg; Activity (Canis familiaris [12]): 18 mL/kg; Activity (Canis familiaris [13]): 0.53 milliequivalent/kg; Activity (Canis familiaris [14]): 2.5 milliequivalent/kg |
| CN(C)c1cc(C(=O)O)cc(OCc2ccccc2)c1C(=O)c1ccccc1 | inactive |  |  |  |  | Activity (Canis familiaris [2]; Canis lupus familiaris, Urine): inactive; Activity (Canis familiaris [3]; Canis lupus familiaris, Urine): inactive; Activity (Canis familiaris [4]; Canis lupus familiaris, Urine): inactive |
| CCCSc1cc(C(=O)O)cc(NC=O)c1C(=O)c1ccccc1 |  | 8 | 1 | 0.42 | 1.2 |  |
| CCNc1cc(C(=O)O)cc(OCc2ccccc2)c1C(=O)c1ccccc1 | inactive |  |  |  |  | Activity (Canis familiaris [2]; Canis lupus familiaris, Urine): inactive; Activity (Canis familiaris [3]; Canis lupus familiaris, Urine): inactive; Activity (Canis familiaris [4]; Canis lupus familiaris, Urine): inactive |
